# Reference: US7982042B2, “Thiozanthene derivatives as delta-opioid modulators” (priority 2003, dated 2011)
# Where two headings read alike, the source gives them in different places.
# Key:
# human mu opioid receptor = biological target: T1, human mu opioid receptor (Homo sapiens, UniProt P35372); assay: [35S]GTPγS binding assay in CHO-hμ cell membranes; assay type: biochemical; details: inhibition relative to 1 uM DAMGO; for inhibition at 10 µM: read-out: hMOR GTPγS % I @10 μM
# T1 construct: purchased Receptor Biology, Inc. (Baltimore, Md.); host or cells: CHO cells expressing the human mu receptor (membranes)
# T1 sequence (P35372 whole entry): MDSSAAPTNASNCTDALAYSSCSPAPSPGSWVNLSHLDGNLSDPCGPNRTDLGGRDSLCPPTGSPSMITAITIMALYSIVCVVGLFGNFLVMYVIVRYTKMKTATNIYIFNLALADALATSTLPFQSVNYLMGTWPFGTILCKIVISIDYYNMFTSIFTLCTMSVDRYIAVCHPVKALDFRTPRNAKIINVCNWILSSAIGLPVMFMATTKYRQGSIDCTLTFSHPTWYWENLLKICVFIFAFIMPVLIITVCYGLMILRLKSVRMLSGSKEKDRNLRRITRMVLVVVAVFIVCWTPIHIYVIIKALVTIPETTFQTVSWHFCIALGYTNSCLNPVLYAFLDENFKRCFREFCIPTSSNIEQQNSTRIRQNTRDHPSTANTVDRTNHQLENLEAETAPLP
# Protocol: CHO-hμ cell membranes are purchased from Receptor Biology, Inc. (Baltimore, Md.). About 10 mg/ml of membrane protein is suspended in 10 mM TRIS-HC pH 7.2, 2 mM EDTA, 10% sucrose.
# (§1) Membranes are maintained at 4-8° C. 1 ml of membranes is added into 15 ml cold binding assay buffer. The assay buffer contains 50 mM HEPES, pH 7.6, 5 mM MgCl2, 100 mM NaCl, 1 mM DTT and 1 mM EDTA. The membrane suspension is homogenized with a Polytron 2 times and centrifuged at 3000 rpm for 10 min. The supernatant is then centrifuged at 18,000 rpm for 20 min. The pellet is saved in a tube and 10 ml assay buffer is added to the tube. The pellet and buffer are mixed with a Polytron.
# (§2) The pellet membranes (20 μg/ml) are preincubated with SPA (10 mg/ml) at 25 C′ for 45 min in the assay buffer. The SPA (5 mg/ml) coupled with membranes (10 μg/ml) is then incubated with 0.5 nM [^35S]GTPgS in the same HEPES buffer containing 50 μM GDP in total volume of 200 μl. Increasing concentrations of receptor agonists are used to stimulate [^35S]GTPgS binding. The basal binding is tested in the absence of agonists and non-specific binding is tested in the present 10 μM unlabeled GTPγS. The data are analyzed on a Top counter.
# % of Basal=(stimulate−non-specific)*100/(basal−non specific). % inhibition value values are calculated using a formula, % Inhibition=(% Basal of 1 uM DAMGO−% Basal of compound)*100/(% Basal of 1 uM DAMGO−100)
# [1] = biological target: T2, Rat brain delta opioid receptor (Rattus norvegicus, UniProt P33533); assay: Rat brain delta opioid receptor binding
# T2 construct: from tissue; host or cells: rat brain
# T2 sequence (P33533 whole entry): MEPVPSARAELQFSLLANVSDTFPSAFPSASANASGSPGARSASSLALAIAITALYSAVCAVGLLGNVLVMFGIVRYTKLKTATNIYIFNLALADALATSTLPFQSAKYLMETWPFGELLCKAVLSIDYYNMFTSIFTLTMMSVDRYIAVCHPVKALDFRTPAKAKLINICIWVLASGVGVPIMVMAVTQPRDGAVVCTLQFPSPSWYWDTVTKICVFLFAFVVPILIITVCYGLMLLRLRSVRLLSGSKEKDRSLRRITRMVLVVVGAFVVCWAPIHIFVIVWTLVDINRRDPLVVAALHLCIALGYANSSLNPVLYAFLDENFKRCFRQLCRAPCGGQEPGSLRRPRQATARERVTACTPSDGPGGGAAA
# [2] = biological target: T3, human delta opioid receptor (Homo sapiens, UniProt P41143); assay: [35S]GTPγS binding assay in CHO-hδ cell membranes; assay type: biochemical
# T3 construct: purchased Receptor Biology, Inc. (Baltimore, Md.); host or cells: CHO cells expressing the human delta receptor (membranes)
# T3 sequence (P41143 whole entry): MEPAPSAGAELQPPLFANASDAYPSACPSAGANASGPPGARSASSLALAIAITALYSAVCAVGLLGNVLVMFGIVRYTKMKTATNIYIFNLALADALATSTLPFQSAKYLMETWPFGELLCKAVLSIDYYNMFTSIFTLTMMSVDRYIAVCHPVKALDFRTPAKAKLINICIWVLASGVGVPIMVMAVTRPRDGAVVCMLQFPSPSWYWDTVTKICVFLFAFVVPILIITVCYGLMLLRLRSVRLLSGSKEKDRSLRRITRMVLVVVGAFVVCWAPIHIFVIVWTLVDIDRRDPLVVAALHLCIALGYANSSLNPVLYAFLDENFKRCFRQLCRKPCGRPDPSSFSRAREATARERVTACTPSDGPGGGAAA
# Protocol: CHO-hδ cell membranes are purchased from Receptor Biology, Inc. (Baltimore, Md.). 10 mg/ml of membrane protein is suspended in 10 mM TRIS-HC pH 7.2, 2 mM EDTA, 10% sucrose.
# as §1, with “buffer contained” for “buffer contains”, “added into” for “added to”
# as §2, with “25° C.” for “25 C′”, “presence of” for “present”, “GTP S.” for “GTPγS.”
# [3] = biological target: T4, Rat brain mu opioid receptor (Rattus norvegicus, UniProt P33535); assay: Rat brain mu opioid receptor binding assay ([3H]DAMGO)
# T4 construct: from tissue; host or cells: forebrain of male Sprague Dawley rats
# T4 sequence (P33535 whole entry): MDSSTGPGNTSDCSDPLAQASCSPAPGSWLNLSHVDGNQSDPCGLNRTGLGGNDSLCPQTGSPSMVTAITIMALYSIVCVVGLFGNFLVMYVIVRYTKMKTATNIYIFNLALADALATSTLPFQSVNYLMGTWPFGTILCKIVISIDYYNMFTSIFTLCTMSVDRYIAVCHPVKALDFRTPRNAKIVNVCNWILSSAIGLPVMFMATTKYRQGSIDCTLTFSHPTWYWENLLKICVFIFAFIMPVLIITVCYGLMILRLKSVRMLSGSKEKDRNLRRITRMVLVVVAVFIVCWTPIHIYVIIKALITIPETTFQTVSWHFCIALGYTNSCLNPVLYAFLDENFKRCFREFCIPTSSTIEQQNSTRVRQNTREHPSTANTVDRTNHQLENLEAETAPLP
# Protocol: • Procedure: Male, Sprague Dawley (150-250 g, VAF, Charles River, Kingston, N.Y.) are killed by CO2, and their brains removed and placed immediately in ice cold Tris HCl buffer (50 mM, pH 7.4). The forebrains are separated from the remainder of the brain by a coronal transection, beginning dorsally at the colliculi and passing ventrally through the midbrain-pontine junction. After dissection, the forebrains are homogenized in Tris buffer in a Teflon®-glass homogenizer. The homogenate is diluted to a concentration of 1 g of forebrain tissue per 80 mL Tris and centrifuged at 39,000×g for 10 min. The pellet is resuspended in the same volume of Tris buffer containing 5 mM MgCl2 with several brief pulses from a Polytron homogenizer. This particulate preparation is used for the mu-opioid binding assays. […] Kd and Ki values are calculated using GraphPad PRISM data analysis program.
# [4] = human delta opioid receptor GTPγS functional assay, read-out: hDOR GTPγS EC50
# [5] = hDOR GTPγS EC50, human delta opioid receptor GTPγS functional assay
SMILES,inhibition at 10 µM (human mu opioid receptor),Ki ([1]; rDOR Ki),"EC50 [2, 4]",Ki ([3]; read-out: rMOR Ki),"EC50 [2, 5]",Ki ([3]; rMOR Ki),Ki ([1]; read-out: rDOR Ki),inhibition at 10 µM ([2]; read-out: inhibition of GTP binding induced with 1 uM DPDPE),hMOR GTPγS % I @10 μM (human mu opioid receptor)
CCN(CC)C(=O)c1ccc2c(c1)Oc1ccccc1C2=C1CCN(CCc2ccccc2)CC1 [Compound 22],2%,45.4 nM,> 10000 nM,2130 nM,–,–,–,–,–
"CCN(CC)C(=O)c1ccc2c(c1)OCc1ccccc1C2=C1CCN(Cc2ccc3c(c2)OCO3)CC1 [Compound 4, 11-(1-Benzo[1,3]dioxol-5-ylmethyl-piperidin-4-ylidene)-6,11-dihydro-dibenzo[b,e]oxepine-3-carboxylic acid diethylamide]",9%,0.39 nM,552 nM,301 nM,–,–,–,–,–
"CCN(CC)C(=O)c1ccc2c(c1)Oc1ccccc1C2=C1CCN(Cc2ccoc2)CC1 [Compound 28, 9-(1-Furan-3-ylmethyl-piperidin-4-ylidene)-9H-xanthene-3-carboxylic acid diethylamide]",24%,0.07 nM,–,–,70.3 nM,811 nM,–,–,–
CCN(CC)C(=O)c1ccc2c(c1)Oc1ccccc1C2=C1CCN(Cc2ccccc2O)CC1 [Compound 30],24%,10.9 nM,2480 nM,912 nM,–,–,–,–,–
"CCN(CC)C(=O)c1ccc2c(c1)Oc1ccccc1C2=C1CCN(C=Nc2ccccc2)CC1 [Compound 36, 9-(1-Phenyliminomethyl-piperidin-4-ylidene)-9H-xanthene-3-carboxylic acid diethylamide]",14%,0.79 nM,–,–,42.5 nM,> 10000 nM,–,–,–
"CCN(CC)C(=O)c1ccc2c(c1)Sc1ccccc1C2=C1CC2CCC(C1)N2Cc1ccc2c(c1)OCO2 [Compound 47, 9-(8-Benzo[1,3]dioxol-5-ylmethyl-8-aza-bicyclo[3.2.1]oct-3-ylidene)-9H-thioxanthene-3-carboxylic acid diethylamide]",59.2%,4.5 nM,125 nM,–,–,48.3 nM,–,–,–
"CCN(CC)C(=O)c1ccc2c(c1)Oc1ccccc1C2=C1CCNCC1 [Compound 3, 9-Piperidin-4-ylidene-9H-xanthene-3-carboxylic acid diethylamide]",1%,0.95 nM,–,–,47 nM,6790 nM,–,–,–
"C=CCN1CCC(=C2c3ccccc3COc3cc(C(=O)N(CC)CC)ccc32)CC1 [Compound 6, 11-(1-Allyl-piperidin-4-ylidene)-6,11-dihydro-dibenzo[b,e]oxepine-3-carboxylic acid diethylamide]",–,4.25 nM,128 nM,7910 nM,–,–,–,–,–
"CCN(CC)C(=O)c1ccc2c(c1)Oc1ccccc1C2C1CCNCC1 (centres unmarked) [Compound 42, 9-Piperidin-4-yl-9H-xanthene-3-carboxylic acid diethylamide]",4%,–,266 nM,8790 nM,–,–,14.7 nM,–,–
"CCN(CC)C(=O)c1ccc2c(c1)Oc1ccccc1C2=C1CC2CCC(C1)N2 [Compound 24, 9-(8-Aza-bicyclo[3.2.1]oct-3-ylidene)-9H-xanthene-3-carboxylic acid diethylamide]",1%,0.57 nM,–,–,10.2 nM,5690 nM,–,–,–
"C=CCN1CCC(=C2c3ccccc3Oc3cc(C(=O)N(CC)CC)ccc32)CC1 [Compound 8, 9-(1-Allyl-piperidin-4-ylidene)-9H-xanthene-3-carboxylic acid diethylamide]",1%,2.1 nM,620 nM,2820 nM,–,–,–,–,–
"CCN(CC)C(=O)c1ccc2c(c1)Oc1ccccc1C2=C1CCN(C(=N)N)CC1 [Compound 31, 9-(1-Carbamimidoyl-piperidin-4-ylidene)-9H-xanthene-3-carboxylic acid diethylamide]",14%,29.8 nM,253 nM,564 nM,–,–,–,–,–
"CCN(CC)C(=O)c1ccc2c(c1)OCc1ccccc1C2=C1CCN(CCc2ccccc2)CC1 [Compound 5, 11-(1-Phenylethylpiperidin-4-ylidene)-6,11-dihydro-dibenzo[b,e]oxepine-3-caroboxylic diethylamide]",–,25.3 nM,> 10000 nM,1290 nM,–,–,–,19%,–
CCN(CC)C(=O)c1ccc2c(c1)Sc1ccccc1C2=C1CC2CCC(C1)N2CCCSC [Compound 50],–,10.2 nM,–,–,236 nM,> 100 nM,–,–,–
"CCN(CC)C(=O)c1ccc2c(c1)Oc1ccccc1C2=C1CCN(C=S)CC1 [Compound 37, 9-(1-Thioformyl-piperidin-4-ylidene)-9H-xanthene-3-carboxylic acid diethylamide]",5%,2.02 nM,–,–,921 nM,> 10000 nM,–,–,–
CCN(CC)C(=O)c1ccc2c(c1)Sc1ccccc1C2=C1CC2CCC(C1)N2CC1CC1 [Compound 49],–,25 nM,–,–,252 nM,> 100 nM,–,–,–
"CCNC(=O)c1ccc2c(c1)OCc1ccccc1C2=C1CC2CCC(C1)N2CCc1ccccc1 [Compound 26, 1-(8-Phenethyl-8-aza-bicyclo[3.2.1]oct-3-ylidene)-6,11-dihydro-dibenzo[b,e]oxepine-3-carboxylic acid ethylamide]",–,–,–,15.6 nM,–,–,5480 nM,–,41.00%
"CCN(CC)C(=O)c1ccc2c(c1)Oc1ccccc1C2=C1CCN(CCO)CC1 [Compound 35, 9-[1-(2-Hydroxy-ethyl)-piperidin-4-ylidene]-9H-xanthene-3-carboxylic acid diethylamide]",17%,7.01 nM,271 nM,> 10000 nM,–,–,–,–,–
"CCN(CC)C(=O)c1ccc2c(c1)Oc1ccccc1C2=C1CC2CCC(C1)N2CCSC [Compound 40, 9-[8-(Methylsulfanyl-ethyl)-8-aza-bicyclo[3.2.1]oct-3-ylidene]-9H-xanthene-3-carboxylic acid diethylamide]",–,12 nM,–,–,267 nM,> 10000 nM,–,–,–
"CCN(CC)C(=O)c1ccc2c(c1)Oc1ccccc1C2=C1CCN(C)CC1 [Compound 7, 9-(1-Methyl-piperidin-4-ylidene)-9H-xanthene-3-carboxylic acid diethylamide]",1%,25.7 nM,–,–,–,9190 nM,–,–,–
"C=CCN1C2CCC1CC(=C1c3ccccc3Oc3cc(C(=O)N(CC)CC)ccc31)C2 [Compound 38, 9-(8-Allyl-8-aza-bicyclo[3.2.1]oct-3-ylidene)-9H-xanthene-3-carboxylic acid diethylamide]",–,31.8 nM,–,–,342 nM,5520 nM,–,–,–
"CCN(CC)C(=O)c1ccc2c(c1)Oc1ccccc1C2=C1CC2CCC(C1)N2C [Compound 23, 9-(8-Methyl-8-aza-bicyclo[3.2.1]oct-3-ylidene)-9H-xanthene-3-carboxylic acid diethylamide]",–,48.4 nM,–,–,245 nM,5560 nM,–,–,–
